Measurements: PMC10059066, “Probing Serum Albumins and Cyclodextrins as Binders of the Mycotoxin Metabolites Alternariol-3-Glucoside, Alternariol-9-Monomethylether-3-Glucoside, and Zearalenone-14-Glucuronide” (Metabolites, 2023)

Tests used:
[1] = Extraction of mycotoxins from aqueous solutions with β-cyclodextrin bead polymer; settings: BBP 10 mg/mL, mycotoxin 5 μM, sodium acetate buffer pH 5.0, 40 min, 25 °C
Procedure: The extraction of mycotoxins by insoluble (but water-swellable) CD bead polymers was tested in 0.05 M sodium acetate (pH 5.0) and 0.05 M sodium borate (pH 10.0) buffers. AG, AMG, alternariol, Z14Glr, and zearalenone solutions (5 μM each) were incubated with increasing amounts (0–10 mg/mL) of BBP or GBP in a thermomixer for 40 min at 1000 rpm and 25 °C. After pulse centrifugation (5000× g, 3 s), the mycotoxin contents of the supernatants were analyzed by HPLC-FLD (see Section 2.5).
The quantitative analyses of the examined mycotoxins were performed with a Jasco HPLC system (Tokyo, Japan) equipped with a binary pump (PU-4180), an autosampler (AS 4050), and a fluorescence detector (FP-920). Chromatograms were evaluated using the ChromNAV2 software (Jasco). Alternariol and zearalenone were analyzed as described previously. During the validation of our new HPLC-FLD methods, the linearity (LIN), limit of detection (LOD), limit of quantification (LOQ), and intraday repeatability (IDR) were determined as described previously.
AG and AMG were quantified using the following method: Isocratic elution of the samples (20 μL) was performed at room temperature with a 1 mL/min flow rate, employing phosphoric acid (1 mM) and acetonitrile (65:35 v/v%) as the mobile phase, where a Security Guard (C18, 4.0 × 3.0 mm; Phenomenex, Torrance, CA, US) precolumn was linked to a Kinetex EVO C18 (250 × 4.6 mm, 5 μm; Phenomenex) analytical column. Chromatograms were recorded, applying 335 nm and 455 nm excitation and emission wavelengths, respectively. The method validation parameters were as follows: AG (LIN: 0.2–5.0 μM, R^2 = 0.999; LOD = 0.05 μM; LOQ = 0.18 μM; IDR = 1.3%, n = 7); AMG (LIN: 0.2–5.0 μM, R^2 = 0.997; LOD = 0.15 μM; LOQ = 0.50 μM; IDR = 2.3%, n = 7).
Z14Glr was quantified using the following method: Isocratic elution of the samples (20 μL) was performed at room temperature with a 1 mL/min flow rate, employing 1% acetic acid solution and acetonitrile (65:35 v/v%) as the mobile phase, where a Security Guard (C8, 4.0 × 3.0 mm; Phenomenex) precolumn was linked to a Mediterranea See8 (C8, 150 × 4.6 mm, 5 μm; Teknokroma, Barcelona, Spain) analytical column. Chromatograms were recorded, applying 315 nm and 465 nm excitation and emission wavelengths, respectively. The method validation parameters for the HPLC analysis of Z14Glr were also determined (LIN: 0.2–5.0 μM, R^2 = 0.999; LOD = 0.15 μM; LOQ = 0.50 μM; IDR = 2.0%, n = 7).

[2] = system: albumins; set-up: method as in PMID 31083629; settings: alternariol, RSA vs HSA; cited from earlier work

For `C[C@H]1CCCC(=O)CCC/C=C/c2cc(O)cc(O)c2C(=O)O1` [zearalenone], the “decrease in mycotoxin concentration (extraction) by BBP” value [1] was “more than 95%”.
In the case of `Cc1cc(O)cc2oc(=O)c3c(O)cc(O)cc3c12` [alternariol], the “affinity of RSA compared to HSA” value [2] is given as “almost eightfold higher affinity”.
